Each structure is given as a SMILES string.

Common to all, as to type: in vivo
In experiment [1] the test system is Abutilon theophrasti (ABUTH). Put plainly: Test 1 glasshouse assay, pre-emergence herbicidal activity. The note with it: 312 h, visual evaluation after 13 days, read-out: Percentage phytotoxicity ABUTH. In short, it runs like this: (§1)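 Visual percentage damage scores, assessed 13 days after treatment, where 0% means no damage and 100% total plant damage. Unformulated compound in acetone/water (50:50) with 0.5% Tween 20 was sprayed onto pots one day after sowing; glasshouse conditions 24/16° C, 14 hours light, 65% humidity.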

The test system of experiment [2] is Alopecurus myosuroides (ALOMY). The description is as above. The note with it: 312 h, visual evaluation after 13 days, read-out: Percentage phytotoxicity ALOMY. In short, it runs like this:
as §1

Experiment [3] concerns Amaranthus retroflexus (AMARE). Described as above. Conditions: 312 h, visual evaluation after 13 days, read-out: Percentage phytotoxicity AMARE. In short, it runs like this:
as §1

The subject of experiment [4] is Echinochloa crus-galli (ECHCG). The description is as above. The note with it: 312 h, visual evaluation after 13 days, read-out: Percentage phytotoxicity ECHCG. In short, it runs like this: as §1
Another experiment has as its system Setaria faberi (SETFA). The experiment is described as above. The note with it: 312 h, visual evaluation after 13 days, read-out: Percentage phytotoxicity SETFA. In short, it runs like this: as §1
Experiment [5] has as its system Zea mays (ZEAMX, corn/maize). The description is as above. The note with it: 312 h, visual evaluation after 13 days, read-out: Percentage phytotoxicity ZEAMX. In short, it runs like this: as §1
In experiment [6] the test system is Abutilon theophrasti (ABUTH). Put plainly: Test 1 glasshouse assay, post-emergence herbicidal activity. The note with it: 312 h, post-emergence (Example 1B Table 1), after 13 days, read-out: Percentage phytotoxicity ABUTH. In short, it runs like this:
(§2)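 Plants sprayed post-emergence after 8 days' growth with active ingredient in acetone/water (50:50) plus 0.5% Tween 20; glasshouse at 24/16° C day/night, 14 h light, 65% humidity. Visual percentage phytotoxicity scored 13 days later (100% = total damage, 0% = none).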

Experiment [7] deals with Amaranthus retroflexus (AMARE). Described as above. Conditions: 312 h, post-emergence (Example 1B Table 1), after 13 days, read-out: Percentage phytotoxicity AMARE. In short, it runs like this: as §2
In the next experiment the test system is Lolium perenne (LOLPE). Put plainly: Test 2 glasshouse assay (IF50 formulation, X-77), pre-emergence herbicidal activity. Conditions: 480 h, 250 g/ha, 20DAA, read-out: Percentage phytotoxicity LOLPE. The procedure:
(§3) Seeds of a variety of monocotyledonous and dicotyledonous test plants are sown in standard soil in pots. The plants are cultivated for one day (for pre-emergence) or for about 12 days (for post-emergence) under controlled conditions in a glasshouse (warm climate species at 24/18° C., cool climate species at 20/16° C., both at day/night; 16 hours light; 65% humidity).
(§4) An “instant formulation”, known as the “IF50”, containing 50 g/liter (i.e. 5% w/v) of the “technical” (i.e. unformulated) active ingredient is prepared by dissolving the active ingredient in a mixture of organic solvents and emulsifier, details of which are provided in the Table below. This IF50 is then mixed with a small, variable amount of acetone to aid dissolution, before addition of a 0.2% v/v aqueous solution of the adjuvant X-77 (which is a mixture of alkyl aryl polyoxyethylene glycols and free fatty acids in isopropanol, CAS Registry number 11097-66-8), as the aqueous diluent, to form an aqueous spray solution which contains a predetermined concentration of the active ingredient (which varies depending on the application rate of the active ingredient to the plants) and 0.2% v/v of the adjuvant X-77. This aqueous spray solution is then sprayed onto the plants, after one day's cultivation (for pre-emergence), or after about 12 days' cultivation (range=10-13 days) (for post-emergence).
(§5) The test plants are then grown on, in a glasshouse (greenhouse) under controlled conditions (warm climate species at 24/18° C., cool climate species at 20/16° C., both at day/night; 16 hours light; 65% humidity) and are watered twice daily. 15 days after application of the test herbicide (15DAA) (for post-emergence), and 20 days after application of the test herbicide (20DAA) (for pre-emergence), the test plants are evaluated visually, and an assessed percentage phytotoxicity score is given for each herbicidal application on each plant species (with 100%=total damage to plant; 0%=no damage to plant).
Cool climate (“cool season”) grassy monocotyledonous weeds: Alopecurus myosuroides (ALOMY), Avena fatua (AVEFA), Lolium perenne (LOLPE).

For experiment [8], the system named is Beta vulgaris (BEAVA, sugarbeet). Put plainly: Test 2 glasshouse assay (IF50 formulation, X-77), post-emergence herbicidal activity. Conditions: 360 h, 15 DAA, visual score, read-out: Post-emergence herbicidal activity (percentage phytotoxicity) BEAVA; for plant injury at 125 g/ha: application rate 125 g/ha; for plant injury at 250 g/ha: application rate 250 g/ha; for plant injury at 30 g/ha: application rate 30 g/ha. The procedure:
as §3, §4, §5
(§6) Cool climate crop plants: Triticum aestivum (TRZAW, winter wheat), Brassica napus (BRSNN, rape, also called oilseed rape or rapeseed), Beta vulgaris (BEAVA, sugarbeet). Warm climate crop plants: Glycine max (GLXMA, soybean).

Experiment [9] deals with Brassica napus (BRSNN, rape). The description is as above. The note with it: 360 h, 15 DAA, visual score, read-out: Post-emergence herbicidal activity (percentage phytotoxicity) BRSNN; for plant injury at 125 g/ha: application rate 125 g/ha; for plant injury at 250 g/ha: application rate 250 g/ha; for plant injury at 30 g/ha: application rate 30 g/ha. The procedure:
as §3, §4, §5, §6

In experiment [10] the test system is Glycine max (GLXMA, soybean). The experiment is described as above. The note with it: 360 h, 15 DAA, visual score, read-out: Post-emergence herbicidal activity (percentage phytotoxicity) GLXMA; for plant injury at 125 g/ha: application rate 125 g/ha; for plant injury at 250 g/ha: application rate 250 g/ha; for plant injury at 30 g/ha: application rate 30 g/ha. The procedure: as §3, §4, §5, §6

Experiment [11] has as its system Triticum aestivum (TRZAW, winter wheat). The experiment is described as above. Conditions: 360 h, 15 DAA, visual score, read-out: Post-emergence herbicidal activity (percentage phytotoxicity) TRZAW; for plant injury at 125 g/ha: application rate 125 g/ha; for plant injury at 250 g/ha: application rate 250 g/ha; for plant injury at 30 g/ha: application rate 30 g/ha. The procedure: as §3, §4, §5, §6

As to `C#CCC1CC(=O)C(c2c(F)cc(-c3ccc(Cl)cc3)cc2Cl)C1=O` (stereo not shown) [Compound A6, 2-[2-chloro-4-(4-chlorophenyl)-6-fluorophenyl]-4-prop-2-ynylcyclopentane-1,3-dione], the pest or weed control at 250 g/ha in experiment [1] was 40%; in experiment [2], 90%; in experiment [3], 90%; in experiment [4], 100%; in the experiment with Setaria faberi (SETFA), 100%; in experiment [5] it was 90%. In addition, the pest or weed control at 250 g/ha in experiment [6] came to 70%; in experiment [7] it was 70%; in the experiment with Lolium perenne (LOLPE) it was 30%. Also, the pest or weed control at 30 g/ha was 40% in [6] and 60% in experiment [7]. Further, the plant injury at 125 g/ha came to 20% in experiment [8], 20% in [9], 10% in experiment [10] and 80% in experiment [11]. Further, the plant injury at 250 g/ha in [8] is 40%; in [9], 40%; in experiment [10] it was 10%; in experiment [11] it was 90%.

As for `C#CCC1CC(=O)C(c2c(F)cc(-c3ccc(Cl)cn3)cc2Cl)C1=O` (stereo not shown) [Compound A8], the pest or weed control at 250 g/ha amounted to 0% in experiment [1]; 90% in [2]; 90% in experiment [3]; 100% in experiment [4]; 100% in the experiment on Setaria faberi (SETFA); 90% in experiment [5]. For the same compound, the pest or weed control at 250 g/ha was found to be 80% in experiment [6], 90% in experiment [7] and 80% with Lolium perenne (LOLPE). Moreover, the pest or weed control at 30 g/ha in experiment [6] was found to be 70%; in [7], 80%. Further, the plant injury at 30 g/ha in experiment [8] amounted to 10%; in experiment [9] it was 70%; in experiment [10], 20%; in experiment [11] it was 30%. Moreover, the plant injury at 250 g/ha in [8] stood at 60%; in experiment [9] it was 80%; in experiment [10] it was 40%; in [11] it was 90%.

Take `C#CCC1CC(=O)C(c2c(Cl)cc(-c3ccc(Cl)cc3)cc2OC)C1=O` (stereo not shown) [Compound A11, 2-[2-chloro-4-(4-chlorophenyl)-6-methoxyphenyl]-4-prop-2-ynylcyclopentane-1,3-dione]: the pest or weed control at 250 g/ha turned out to be 40% in experiment [1]; 100% in experiment [2]; 80% in [3]; 100% in experiment [4]; 100% in the experiment with Setaria faberi (SETFA); 100% in [5]. The values for the pest or weed control at 250 g/ha (in [6]; in [7]; with Lolium perenne (LOLPE)) were 80%, 80% and 60%, respectively. Further, the figures for the pest or weed control at 30 g/ha in [6] and in experiment [7] were 30% and 50%, respectively. The plant injury at 30 g/ha was found to be 20% in [8], 30% in [9], 0% in experiment [10] and 60% in [11]. The plant injury at 250 g/ha worked out at 70% in experiment [8], 70% in experiment [9], 20% in [10] and 90% in experiment [11].

On to `C#CCC1CC(=O)C(c2c(F)cc(-c3ccc(Cl)cc3)cc2OC)C1=O` (stereo not shown) [Compound A14], for which the pest or weed control at 250 g/ha in experiment [1] was determined as 20%; in experiment [2], 100%; in experiment [3] it was 90%; in experiment [4], 100%; in the experiment on Setaria faberi (SETFA) it was 100%; in experiment [5], 100%. Also, the pest or weed control at 250 g/ha amounted to 0% in [6], 60% in [7] and 70% in the experiment on Lolium perenne (LOLPE). Also, the results for the pest or weed control at 62.5 g/ha in experiment [6] (62.5 g/ha) and in [7] (62.5 g/ha) were 0% and 50%, respectively. For the same compound, the plant injury at 125 g/ha in [8] was 10%; in experiment [9], 0%; in experiment [10], 0%; in [11] it was 40%.

As for `C#CCC1CC(=O)C(c2c(Cl)cc(-c3ccc(F)cc3F)cc2OC)C1=O` (stereo not shown) [Compound A12], the pest or weed control at 250 g/ha in [1] amounted to 80%; in experiment [2], 90%; in experiment [3], 100%; in [4], 100%; with Setaria faberi (SETFA), 100%; in [5] it was 100%. For the same compound, the pest or weed control at 250 g/ha in [6] stood at 80%; in experiment [7], 80%; in the experiment with Lolium perenne (LOLPE), 100%. Also, the pest or weed control at 30 g/ha was determined as 50% in experiment [6] and 30% in experiment [7]. The plant injury at 30 g/ha in experiment [8] turned out to be 40%; in [9], 50%; in [10], 0%; in [11] it was 40%. Further, the plant injury at 125 g/ha was 40% in experiment [8], 60% in experiment [9], 0% in experiment [10] and 80% in [11].

The values are drawn from patent US10375956B2, “Herbicidally active 2-(substituted-phenyl)-cyclopentane-1,3-dione compounds and derivatives thereof” (Syngenta Limited, priority 2013, dated 2019).
